# Assay results taken from paper PMC10223284, “Category-Based Toxicokinetic Evaluations of Data-Poor Per- and Polyfluoroalkyl Substances (PFAS) using Gas Chromatography Coupled with Mass Spectrometry” (Toxics, 2023).
# Where two headings read alike, the source gives them in different places.
# Columns and labels:
# human plasma [1] = conditions: for PPB_Stab_Fail / % remaining_PPB: plasma
# in vitro = conditions: both, human, plasma
# human plasma [2] = system: human plasma
# [3] = Abiotic loss in negative controls of the hepatocyte clearance assay (cell-free media, metabolically inactivated hepatocytes); assay type: in vitro ADME
# Procedure, shortened: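 Test compound at 1 μM incubated at 37 °C with shaking in complete William's medium E, either cell-free or with metabolically inactivated hepatocytes, then quenched with ice-cold acetonitrile for quantitative analysis.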
# [4] = flag for stability failure in hepatocyte clearance assay controls (1 or Fst = fail, 0 = pass)
Structure (SMILES),Unstable (human plasma [1]),"Time 1 hr, Run-specific Avg (human plasma [1]; both, human, 1 h, 10 μM)","Fstable.Med (human plasma [1]; both, human, 5 h, 10 μM)","Mean Stability (human plasma [1]; both, human, 5 h, 10 μM)","Stability (T5hr/ T1hr), Run-specific Avg (human plasma [1]; both, human, 5 h, 10 μM)","Time 5 hr, Run-specific Avg (human plasma [1]; both, human, 5 h, 10 μM)","PPB_Stab_Fail (human plasma [1]; both, human, 5 h, 10 μM)","fraction unbound at 5 h, 10 μM (in vitro; Fraction Unbound (fu), Run-specific Avg)","fraction unbound at 5 h, 10 μM (in vitro; Mean Fu)","Aqueous Fraction, Run-specific Avg (human plasma [2]; both, human, 5 h, 10 μM)","Fup.Med (human plasma [2]; both, human, 5 h, 10 μM)","Fup.point (human plasma [2]; both, human, 5 h, 10 μM)","Hep_Stab_Fail ([3]; both, human, 120 min, 1 μM)",Fstable.Med (human plasma [1]),% remaining_PPB (human plasma [1]; human) [%],PPB_Stab_Fail (human plasma [1]; human),Fup.Med (human plasma [2]),Fup.point (human plasma [2]),"Hep_Stab_Fail [3, 4]","Mean fu (human plasma [2]; human, plasma)"
COC(=O)C(F)(F)C(F)(F)OC(F)(C(F)(F)F)C(F)(F)OC(F)=C(F)F (stereo not shown) [Methyl perfluoro(3-(1-ethenyloxypropan-2-yloxy)propanoate)],Y,11859.81,0.224,0.836,0.726,8614.65,1,0.0232,0.023,200.27,0.0161,0.0235,1,,,,,,,
"C=C(C)C(=O)OCC(F)(F)C(F)(F)C(F)(F)F [1H,1H-Perfluorobutyl methacrylate]",Y,,,,,,,,,,,,,0.0018,8,1,0.716,0.706,1,
C=C(C)C(=O)OCCC(F)(F)C(F)(F)C(F)(F)C(F)(F)C(F)(F)C(F)(F)C(F)(F)C(F)(F)F [8:2 Fluorotelomer methacrylate],Y,,,,,,,,,,,,,0.0797,66,0,0.0461,0.0503,1,0.09
